{
  "source": "patent US20090048214A1",
  "about": "“Methods for Treating Renal Tumors Using 2, 4-Pyrimidinediamine Drug and Prodrug Compounds” (RIGEL PHARMACEUTICALS, INC, priority 2006, published 2009)",
  "key": {"A549/ATCC": {"system": "A549/ATCC", "assay": "cells", "details": "Homo sapiens, A549, read-out: LC50"}, "KM12": {"system": "KM12", "assay": "cells", "details": "Homo sapiens"}, "RXF 393": {"system": "RXF 393", "details": "RXF 393, Renal Cancer; besylate salt"}, "NCI-H322M": {"system": "NCI-H322M", "details": "Non-Small Cell Lung Cancer, besylate salt"}, "MOLT-4": {"system": "MOLT-4", "assay": "cells", "details": "Homo sapiens"}, "SK-MEL-2": {"system": "SK-MEL-2", "details": "SK-MEL-2, Melanoma; besylate salt"}, "MCF7": {"system": "MCF7", "assay": "cells", "details": "Homo sapiens"}, "SK-MEL-5": {"system": "SK-MEL-5", "assay": "cells", "details": "Homo sapiens"}, "SF-295": {"system": "SF-295", "details": "SF-295, CNS Cancer; besylate salt"}, "SK-OV-3 [1]": {"system": "SK-OV-3", "assay": "cells", "details": "Homo sapiens"}, "HOP-62 [2]": {"system": "HOP-62", "details": "HOP-62, Non-Small Cell Lung Cancer; besylate salt"}, "DU-145": {"system": "DU-145", "assay": "cells", "details": "Homo sapiens, DU-145, read-out: LC50"}, "UACC-257 [3]": {"system": "UACC-257", "assay": "cells", "details": "Homo sapiens"}, "SNB-75": {"system": "SNB-75", "details": "SNB-75, CNS Cancer; besylate salt"}, "UACC-62": {"system": "UACC-62", "assay": "cells", "details": "Homo sapiens, UACC-62, read-out: LC50"}, "BT-549": {"system": "BT-549", "details": "BT-549, Breast Cancer; besylate salt"}, "K-562": {"system": "K-562", "details": "K-562, Leukemia; besylate salt"}, "HOP-62 [4]": {"system": "HOP-62", "assay": "cells", "details": "Homo sapiens"}, "TK-10": {"system": "TK-10", "details": "TK-10, Renal Cancer; besylate salt"}, "UACC-257 [5]": {"system": "UACC-257", "details": "UACC-257, Melanoma; besylate salt"}, "ACHN": {"system": "ACHN", "assay": "cells", "details": "Homo sapiens"}, "OVCAR-3": {"system": "OVCAR-3", "details": "OVCAR-3, Ovarian Cancer; besylate salt"}, "OVCAR-8": {"system": "OVCAR-8", "details": "OVCAR-8, Ovarian Cancer; besylate salt"}, "T-47D": {"system": "T-47D", "details": "Breast Cancer, besylate salt"}, "SK-MEL-28": {"system": "SK-MEL-28", "assay": "cells", "details": "Homo sapiens"}, "SK-OV-3 [6]": {"system": "SK-OV-3", "details": "SK-OV-3, Ovarian Cancer; besylate salt"}, "NCI-H23": {"system": "NCI-H23", "details": "NCI-H23, Non-Small Cell Lung Cancer; besylate salt"}, "SR": {"system": "SR", "details": "Leukemia, besylate salt"}, "M14 [7]": {"system": "M14", "details": "M14, Melanoma; besylate salt"}, "EKVX": {"system": "EKVX", "details": "Non-Small Cell Lung Cancer, besylate salt"}, "COLO 205": {"system": "COLO 205", "assay": "cells", "details": "Homo sapiens"}, "SNB-19": {"system": "SNB-19", "details": "SNB-19, CNS Cancer; besylate salt"}, "RPM1-8226": {"system": "RPM1-8226", "assay": "cells", "details": "Homo sapiens"}, "CCRF-CEM": {"system": "CCRF-CEM", "assay": "cells", "details": "Homo sapiens, read-out: LC50"}, "NCI-H522": {"system": "NCI-H522", "details": "NCI-H522, Non-Small Cell Lung Cancer; besylate salt"}, "LOX I MVI": {"system": "LOX I MVI", "assay": "cells", "details": "Homo sapiens, LOX IMVI"}, "M14 [8]": {"system": "M14", "assay": "cells", "details": "Homo sapiens"}},
  "data": [
    {"smiles": "COc1cc(Nc2ncc(F)c(Nc3ccc4c(n3)NC(=O)C(C)(C)O4)n2)cc(OC)c1OC", "note": "[Compound 1]", "values": [
      {"measurement": "CC50", "setting": "A549/ATCC", "result": "> 100", "unit": "µM"},
      {"measurement": "IC50", "setting": "KM12; KM12, read-out: G150", "result": 0.355, "unit": "µM"},
      {"measurement": "CC50", "setting": "KM12; KM12, read-out: LC50", "result": "> 100", "unit": "µM"},
      {"measurement": "TGI", "setting": "RXF 393", "result": "7.74E−7"},
      {"measurement": "TGI", "setting": "NCI-H322M", "result": ">1.00E−4"},
      {"measurement": "IC50", "setting": "MOLT-4; MOLT-4, read-out: G150", "result": 4.82, "unit": "µM"},
      {"measurement": "CC50", "setting": "MOLT-4; MOLT-4, read-out: LC50", "result": "> 100", "unit": "µM"},
      {"measurement": "TGI", "setting": "SK-MEL-2", "result": ">1.00E−4"},
      {"measurement": "IC50", "setting": "MCF7; MCF7, read-out: G150", "result": 2.72, "unit": "µM"},
      {"measurement": "CC50", "setting": "MCF7; MCF7, read-out: LC50", "result": "> 100", "unit": "µM"},
      {"measurement": "IC50", "setting": "SK-MEL-5; SK-MEL-5, read-out: G150", "result": "> 100", "unit": "µM"},
      {"measurement": "CC50", "setting": "SK-MEL-5; SK-MEL-5, read-out: LC50", "result": "> 100", "unit": "µM"},
      {"measurement": "TGI", "setting": "SF-295", "result": ">1.00E−4"},
      {"measurement": "IC50", "setting": "SK-OV-3 [1]; SK-OV-3, read-out: G150", "result": 0.429, "unit": "µM"},
      {"measurement": "CC50", "setting": "SK-OV-3 [1]; SK-OV-3, read-out: LC50", "result": "> 100", "unit": "µM"},
      {"measurement": "TGI", "setting": "HOP-62 [2]", "result": ">1.00E−4"},
      {"measurement": "CC50", "setting": "DU-145", "result": "> 100", "unit": "µM"},
      {"measurement": "IC50", "setting": "UACC-257 [3]; UACC-257, read-out: G150", "result": "> 100", "unit": "µM"},
      {"measurement": "CC50", "setting": "UACC-257 [3]; UACC-257, read-out: LC50", "result": "> 100", "unit": "µM"},
      {"measurement": "TGI", "setting": "SNB-75", "result": ">1.00E−4"},
      {"measurement": "CC50", "setting": "UACC-62", "result": "> 100", "unit": "µM"},
      {"measurement": "TGI", "setting": "BT-549", "result": ">1.00E−4"},
      {"measurement": "TGI", "setting": "K-562", "result": ">1.00E−4"},
      {"measurement": "IC50", "setting": "HOP-62 [4]; HOP-62, read-out: G150", "result": 0.537, "unit": "µM"},
      {"measurement": "CC50", "setting": "HOP-62 [4]; HOP-62, read-out: LC50", "result": "> 100", "unit": "µM"},
      {"measurement": "TGI", "setting": "TK-10", "result": ">1.00E−4"},
      {"measurement": "TGI", "setting": "UACC-257 [5]", "result": ">1.00E−4"},
      {"measurement": "IC50", "setting": "ACHN; read-out: G150", "result": 1.24, "unit": "µM"},
      {"measurement": "CC50", "setting": "ACHN; read-out: LC50", "result": "> 100", "unit": "µM"},
      {"measurement": "TGI", "setting": "OVCAR-3", "result": ">1.00E−4"},
      {"measurement": "TGI", "setting": "OVCAR-8", "result": ">1.00E−4"},
      {"measurement": "TGI", "setting": "T-47D", "result": ">1.00E−4"},
      {"measurement": "IC50", "setting": "SK-MEL-28; SK-MEL-28, read-out: G150", "result": "> 100", "unit": "µM"},
      {"measurement": "CC50", "setting": "SK-MEL-28; SK-MEL-28, read-out: LC50", "result": "> 100", "unit": "µM"},
      {"measurement": "TGI", "setting": "SK-OV-3 [6]", "result": ">1.00E−4"},
      {"measurement": "TGI", "setting": "NCI-H23", "result": ">1.00E−4"},
      {"measurement": "TGI", "setting": "SR", "result": ">1.00E−4"},
      {"measurement": "TGI", "setting": "M14 [7]", "result": ">1.00E−4"},
      {"measurement": "TGI", "setting": "EKVX", "result": ">1.00E−4"},
      {"measurement": "IC50", "setting": "COLO 205; COLO 205, read-out: G150", "result": 7.26, "unit": "µM"},
      {"measurement": "CC50", "setting": "COLO 205; COLO 205, read-out: LC50", "result": "> 100", "unit": "µM"},
      {"measurement": "TGI", "setting": "SNB-19", "result": ">1.00E−4"},
      {"measurement": "IC50", "setting": "RPM1-8226; read-out: G150", "result": "> 100", "unit": "µM"},
      {"measurement": "CC50", "setting": "RPM1-8226; read-out: LC50", "result": "> 100", "unit": "µM"},
      {"measurement": "CC50", "setting": "CCRF-CEM", "result": "> 100", "unit": "µM"},
      {"measurement": "TGI", "setting": "NCI-H522", "result": ">1.00E−4"},
      {"measurement": "IC50", "setting": "LOX I MVI; read-out: G150", "result": 1.13, "unit": "µM"},
      {"measurement": "CC50", "setting": "LOX I MVI; read-out: LC50", "result": "> 100", "unit": "µM"},
      {"measurement": "IC50", "setting": "M14 [8]; M14, read-out: G150", "result": "> 100", "unit": "µM"},
      {"measurement": "CC50", "setting": "M14 [8]; M14, read-out: LC50", "result": "> 100", "unit": "µM"}
    ]}
  ]
}
